Measured values reported in publication PMC10607160 (International Journal of Molecular Sciences, 2023).
pIC50: −log10 of the molar value. Where two headings read alike, the source gives them in different places.

Columns and labels:
[1] = molecular target: E. coli Trx1 / E. coli TrxR (thioredoxin system) (Escherichia coli, UniProt P0AA25); assay: Disulfide bond reduction assay by EcoTrx1 (NADPH absorbance at 340 nm); type: biochemical; conditions: for Absorbance Asample1 / Absorbance Asample2 / Absorbance Average1, 2: A340, with TrxR
Protocol: The assay employed was based on changes in the absorbance at 340 nm from the oxidation of NADPH using a modified version of the protocol laid out in [90]. Briefly, the decrease in A340 was measured in 96-well plates containing 100 μL of 200 mM potassium phosphate pH 7.4, 1 mM EDTA, 0.1 mg/mL BSA, 200 μM NADPH, 2 μM E. coli Trx1 and 10 nM E. coli TrxR for 5 min at 25 °C with insulin at a final concentration of 0.067 mM (0.2 mM disulfides) (see Table S2). The reduction of con7 was measured at a final concentration of 0.2 mM (see Table S3). Blanks were samples without EcoTrxR.
Figure 4 Reduction of (A) con7 and (B) insulin by EcoTrx1. The assay mixture contains 200 mM potassium phosphate pH 7.4, 1 mM EDTA, 0.1 mg/mL BSA, 200 μM NADPH, 2 μM Escherichia coli Trx1, 10 nM E. coli TrxR, (A) 0.2 mM con7 or (B) 0.067 mM (0.2 mM disulfides) insulin. The reaction was carried out at 25 °C by monitoring the decrease of NADPH absorbance at 340 nm for (A) con7 in the absence ( [drawing 1] ) or presence of TrxR ( [drawing 2] ) and (B) insulin in the absence ( [drawing 3] ) or presence of TrxR ( [drawing 4] ).

human GnRHR I = molecular target: T1, human GnRHR I (Homo sapiens, UniProt P30968); assay: Competitive radioligand binding (125I-DTyr6-His5-GnRH) on membranes from HEK 293 cells stably expressing GnRHR I
T1 construct: expressed in transfected cells
T1 sequence (P30968 1-328): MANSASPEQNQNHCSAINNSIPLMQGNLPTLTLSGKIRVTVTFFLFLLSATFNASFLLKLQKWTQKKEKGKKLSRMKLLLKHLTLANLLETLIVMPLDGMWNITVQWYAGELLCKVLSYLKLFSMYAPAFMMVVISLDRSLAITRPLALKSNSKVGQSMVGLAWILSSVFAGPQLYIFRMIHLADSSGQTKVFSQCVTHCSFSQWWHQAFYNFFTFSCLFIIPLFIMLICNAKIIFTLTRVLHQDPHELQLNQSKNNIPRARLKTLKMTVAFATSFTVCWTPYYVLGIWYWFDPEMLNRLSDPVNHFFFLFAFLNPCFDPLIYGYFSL

[2] = competition with 125I-DTyr6-His5-GnRH, HEK 293 membranes, 4 °C 16-19 h, one-site model, read-out: apparent binding affinity (IC50)

Chain of E. coli Trx1 / E. coli TrxR (thioredoxin system) (P0AA25 2-109): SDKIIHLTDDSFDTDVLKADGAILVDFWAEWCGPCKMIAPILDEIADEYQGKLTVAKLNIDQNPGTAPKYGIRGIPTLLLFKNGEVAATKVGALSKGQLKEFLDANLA

Molecule: insulin
- Absorbance Asample1 ([1]; 0 sec): 0.236
- Absorbance Asample2 ([1]; 0 sec): 0.257
- Absorbance Average1, 2 ([1]; 0 sec): 0.247
- Absorbance Asample1 ([1]; 9 sec): 0.236
- Absorbance Asample2 ([1]; 9 sec): 0.257
- Absorbance Average1, 2 ([1]; 9 sec): 0.247
- Absorbance Asample1 ([1]; 18 sec): 0.236
- Absorbance Asample2 ([1]; 18 sec): 0.257
- Absorbance Average1, 2 ([1]; 18 sec): 0.247
- Absorbance Asample1 ([1]; 27 sec): 0.235
- Absorbance Asample2 ([1]; 27 sec): 0.257
- Absorbance Average1, 2 ([1]; 27 sec): 0.246
- Absorbance Asample1 ([1]; 36 sec): 0.236
- Absorbance Asample2 ([1]; 36 sec): 0.256
- Absorbance Average1, 2 ([1]; 36 sec): 0.246
- Absorbance Asample1 ([1]; 45 sec): 0.235
- Absorbance Asample2 ([1]; 45 sec): 0.256
- Absorbance Average1, 2 ([1]; 45 sec): 0.246
- Absorbance Asample1 ([1]; 54 sec): 0.235
- Absorbance Asample2 ([1]; 54 sec): 0.255
- Absorbance Average1, 2 ([1]; 54 sec): 0.245
- Absorbance Asample1 ([1]; 63 sec): 0.235
- Absorbance Asample2 ([1]; 63 sec): 0.256
- Absorbance Average1, 2 ([1]; 63 sec): 0.246
- Absorbance Asample1 ([1]; 72 sec): 0.235
- Absorbance Asample2 ([1]; 72 sec): 0.255
- Absorbance Average1, 2 ([1]; 72 sec): 0.245
- Absorbance Asample1 ([1]; 81 sec): 0.233
- Absorbance Asample2 ([1]; 81 sec): 0.254
- Absorbance Average1, 2 ([1]; 81 sec): 0.244
- Absorbance Asample1 ([1]; 90 sec): 0.235
- Absorbance Asample2 ([1]; 90 sec): 0.255
- Absorbance Average1, 2 ([1]; 90 sec): 0.245
- Absorbance Asample1 ([1]; 99 sec): 0.234
- Absorbance Asample2 ([1]; 99 sec): 0.254
- Absorbance Average1, 2 ([1]; 99 sec): 0.244
- Absorbance Asample1 ([1]; 108 sec): 0.234
- Absorbance Asample2 ([1]; 108 sec): 0.255
- Absorbance Average1, 2 ([1]; 108 sec): 0.245
- Absorbance Asample1 ([1]; 117 sec): 0.235
- Absorbance Asample2 ([1]; 117 sec): 0.253
- Absorbance Average1, 2 ([1]; 117 sec): 0.244
- Absorbance Asample1 ([1]; 126 sec): 0.234
- Absorbance Asample2 ([1]; 126 sec): 0.253
- Absorbance Average1, 2 ([1]; 126 sec): 0.244
- Absorbance Asample1 ([1]; 135 sec): 0.235
- Absorbance Asample2 ([1]; 135 sec): 0.253
- Absorbance Average1, 2 ([1]; 135 sec): 0.244
- Absorbance Asample1 ([1]; 144 sec): 0.234
- Absorbance Asample2 ([1]; 144 sec): 0.253
- Absorbance Average1, 2 ([1]; 144 sec): 0.244
- Absorbance Asample1 ([1]; 153 sec): 0.232
- Absorbance Asample2 ([1]; 153 sec): 0.252
- Absorbance Average1, 2 ([1]; 153 sec): 0.242
- Absorbance Asample1 ([1]; 162 sec): 0.233
- Absorbance Asample2 ([1]; 162 sec): 0.253
- Absorbance Average1, 2 ([1]; 162 sec): 0.243
- Absorbance Asample1 ([1]; 171 sec): 0.233
- Absorbance Asample2 ([1]; 171 sec): 0.252
- Absorbance Average1, 2 ([1]; 171 sec): 0.243
- Absorbance Asample1 ([1]; 180 sec): 0.233
- Absorbance Asample2 ([1]; 180 sec): 0.252
- Absorbance Average1, 2 ([1]; 180 sec): 0.243
- Absorbance Asample1 ([1]; 189 sec): 0.232
- Absorbance Asample2 ([1]; 189 sec): 0.252
- Absorbance Average1, 2 ([1]; 189 sec): 0.242
- Absorbance Asample1 ([1]; 198 sec): 0.233
- Absorbance Asample2 ([1]; 198 sec): 0.252
- Absorbance Average1, 2 ([1]; 198 sec): 0.243
- Absorbance Asample1 ([1]; 207 sec): 0.232
- Absorbance Asample2 ([1]; 207 sec): 0.252
- Absorbance Average1, 2 ([1]; 207 sec): 0.242
- Absorbance Asample1 ([1]; 216 sec): 0.233
- Absorbance Asample2 ([1]; 216 sec): 0.252
- Absorbance Average1, 2 ([1]; 216 sec): 0.243
- Absorbance Asample1 ([1]; 225 sec): 0.232
- Absorbance Asample2 ([1]; 225 sec): 0.252
- Absorbance Average1, 2 ([1]; 225 sec): 0.242
- Absorbance Asample1 ([1]; 234 sec): 0.232
- Absorbance Asample2 ([1]; 234 sec): 0.252
- Absorbance Average1, 2 ([1]; 234 sec): 0.242
- Absorbance Asample1 ([1]; 243 sec): 0.231
- Absorbance Asample2 ([1]; 243 sec): 0.251
- Absorbance Average1, 2 ([1]; 243 sec): 0.241
- Absorbance Asample1 ([1]; 252 sec): 0.231
- Absorbance Asample2 ([1]; 252 sec): 0.251
- Absorbance Average1, 2 ([1]; 252 sec): 0.241
- Absorbance Asample1 ([1]; 261 sec): 0.230
- Absorbance Asample2 ([1]; 261 sec): 0.250
- Absorbance Average1, 2 ([1]; 261 sec): 0.240
- Absorbance Asample1 ([1]; 270 sec): 0.230
- Absorbance Asample2 ([1]; 270 sec): 0.250
- Absorbance Average1, 2 ([1]; 270 sec): 0.240
- Absorbance Asample1 ([1]; 279 sec): 0.231
- Absorbance Asample2 ([1]; 279 sec): 0.251
- Absorbance Average1, 2 ([1]; 279 sec): 0.241
- Absorbance Asample1 ([1]; 288 sec): 0.230
- Absorbance Asample2 ([1]; 288 sec): 0.250
- Absorbance Average1, 2 ([1]; 288 sec): 0.240
- Absorbance Asample1 ([1]; 297 sec): 0.229
- Absorbance Asample2 ([1]; 297 sec): 0.250
- Absorbance Average1, 2 ([1]; 297 sec): 0.240
- reduction of disulfide bond by the thioredoxin system ([1]; decrease of NADPH absorbance over time in samples containing TrxR): successful

Molecule: O=C1c2c(O)ccc(O)c2C(=O)c2c(NCCNCCO)ccc(NCCNCCO)c21 [mitoxantrone, reference compound]
- apparent binding affinity (IC50) (human GnRHR I; competition with 125I-DTyr6-His5-GnRH, HEK 293 membranes, 4 °C 16-19 h, one-site model): did not bind
- pIC50 (human GnRHR I; [2]): < 6.00

Molecule: CCNC(=O)[C@@H]1CCCN1C(=O)[C@H](CCCNC(=N)N)NC(=O)[C@H](CC(C)C)NC(=O)[C@@H](CCCCNC(=O)CCCCCNC(=O)CCSSCC(=O)NCCCCNc1ccc(O)c2c1C(=O)c1ccccc1C2=O)NC(=O)[C@H](Cc1ccc(O)cc1)NC(=O)[C@H](CO)NC(=O)[C@H](Cc1c[nH]c2ccccc12)NC(=O)[C@H](Cc1c[nH]cn1)NC(=O)[C@@H]1CCC(=O)N1 [con6]
- pIC50 (human GnRHR I; [2]): 10.15

Molecule: CCNC(=O)[C@@H]1CCCN1C(=O)[C@H](CCCNC(=N)N)NC(=O)[C@H](CC(C)C)NC(=O)[C@@H](CSSCCC(=O)OCCNCCNc1ccc(NCCNCCO)c2c1C(=O)c1c(O)ccc(O)c1C2=O)NC(=O)[C@H](Cc1ccc(O)cc1)NC(=O)[C@H](CO)NC(=O)[C@H](Cc1c[nH]c2ccccc12)NC(=O)[C@H](Cc1c[nH]cn1)NC(=O)[C@@H]1CCC(=O)N1 [con3]
- pIC50 (human GnRHR I): 10.15

Molecule: CCNC(=O)[C@@H]1CCCN1C(=O)[C@H](CCCNC(=N)N)NC(=O)[C@H](CC(C)C)NC(=O)[C@@H](CS)NC(=O)[C@H](Cc1ccc(O)cc1)NC(=O)[C@H](CO)NC(=O)[C@H](Cc1c[nH]c2ccccc12)NC(=O)[C@H](Cc1c[nH]cn1)NC(=O)[C@@H]1CCC(=O)N1 [analogue 2, [DCys^6, Pro^9-NHEt]GnRH]
- pIC50 (human GnRHR I; [2]): 9.15

Molecule: CCNC(=O)[C@@H]1CCCN1C(=O)[C@H](CCCNC(=N)N)NC(=O)[C@H](CC(C)C)NC(=O)[C@@H](CCCCN)NC(=O)[C@H](Cc1ccc(O)cc1)NC(=O)[C@H](CO)NC(=O)[C@H](Cc1c[nH]c2ccccc12)NC(=O)[C@H](Cc1c[nH]cn1)NC(=O)[C@@H]1CCC(=O)N1 [analogue 4, (DLys^6, Pro^9-NHEt)GnRH]
- pIC50 (human GnRHR I; [2]): 8.60
